Read-outs that look alike come from different tables or passages of the source.
How the values were obtained:
[1] = test system: W2 strain (CQ-resistant) of P. falciparum; assay: Host cell-mediated drug degradation: antiplasmodial activity of uRBC supernatants; type: cell-based, Plasmodium falciparum; settings: uRBC 1.0% hematocrit; for IC50: Plasmodium falciparum, 0.16 h, W2, pLDH, median ± SEM, read-out: IC50 of supernatants harvested at 0.16 h; for Fold changes (24 h/0.16 h): W2
Procedure: (§1) Each well of 96-well plates was filled with 125 µL drug (1000 nM) and 125 µL uninfected red blood cells (uRBC), which were mixed to obtain a final drug concentration of 500 nM and 2.5% or 1.0% hematocrit. The plates were incubated at 37°C in the standard gas mixture. After each time point (10 min, 6 h, and 24 h), supernatants were carefully harvested and stored at −80°C until use. Untreated uRBC incubated at the same times were used as negative controls, and DHA and AQ were employed as standard drugs. Next, supernatants were diluted in a complete medium in six different dilutions and were aliquoted in new plates. The antimalarial activity of these supernatants and freshly dissolved drugs was determined in an asynchronous parasite culture of P. falciparum (3D7, D10, and W2 strains) for 72 h using the same method described above, and parasite viability was assessed by the pLDH ([38]) and SYBR Green I ([41]) methods. Only the experiments where the IC50 values of the supernatants harvested at 10 min were the same as those of the respective fresh drugs were considered for determining equivalent drug concentration. […] Decay in drug concentration was estimated by using the normalized slope values calculated from linear regression fits using the slope values of a standard curve as reference. Three independent experiments were performed using two replicates.
(§2) Figure S5: Data associated to Figure 3 in the main text of the manuscript. Panel A: Representative response-concentration curves of the antiplasmodial activity of supernatant-derived uRBC (2.5% hematocrit) harvested at indicated times (0.16, 6, and 24 h). Drug activity on parasite viability was determined 72 h after parasite incubation (3D7 strain, asynchronous). Values were subtracted from control (without treatment), transformed, and normalized to calculate nonlinear fit. Parasite viability was determined by SYBR Green I. Values are mean and error bars are the standard deviation of a single experiment, each concentration in duplicate. Panel B: A table summarizing the IC50 values. Footnotes: ^[a] Parasite viability was determined by SYBR Green I. ^[b^] Parasite viability was determined by pLDH readout. Values are median ± SEM of three independent experiments, each concentration in duplicate. ^[c^] […] These values are expressed as mean and 95% confidence interval (CI) of one experiment, each concentration in duplicate. AQ = amodiaquine; DHA = dihydroartemisinin; uRBC = uninfected red blood cells. Unpaired two-tailed t-test at 95% CI: *p <0.05; **p <0.01.

[2] = test system: D10 strain of P. falciparum; assay: as above; type: cell-based, Plasmodium falciparum; settings: uRBC 1.0% hematocrit; for IC50: Plasmodium falciparum, 0.16 h, D10, pLDH, median ± SEM, read-out: IC50 of supernatants harvested at 0.16 h; for Fold changes (24 h/0.16 h): D10
Procedure: as §1, §2

[3] = test system: heme (iron II)-initiated β-hematin formation; assay: β-hematin inhibitory activity under reducing condition (R-BHIA); type: biochemical; settings: for IC50: mean (95% CI); for Fold changes, IC50 (10 minutes) to IC50 (120 minutes): R-BHIA
Procedure: The compounds were dissolved in DMSO and diluted in DMSO to six different concentrations (1.0–32 mM). Hemin (Fe^III[PPIX]Cl) (BioXtra, Sigma-Aldrich) was first dissolved in 0.1 M NaOH and then suspended in an 80:20 vol/vol mixture of DMSO and propionate buffer (0.1 M, pH 5.6) to a stock solution at 8 mM. Reduced glutathione (GSH) was dissolved in 0.1 M NaOH and then adjusted to 10 mM using propionate buffer (0.1 M, pH 5.6). […] Then, 20 µL of the drug was added, and the plates were incubated for 2 h at 37°C. The plastic film was removed after drug incubation, 160 µL propionate buffer (1.0 M, pH 5.6) was added, and plates were incubated for 18 h at 37°C. BHIA under the oxidizing condition (O-BHIA) was prepared in parallel without adding GSH. Controls included wells without drugs and wells containing PBS 1× instead of propionate buffer. Afterward, the plates were centrifuged, the supernatant was discarded, and the pellets of β-hematin crystals were washed twice with pure DMSO and then water. The resulting β-hematin crystals were then dissolved in 200 µL 0.1 M NaOH and diluted to a 1:8 ratio. Aliquots were then transferred into a new plate and read by UV-visible absorbance at […]. Percent of BHIA was calculated in comparison to untreated wells (no drugs), and IC50 was then calculated. Two independent experiments were performed using three replicates of each drug concentration ([46]).
Figure S6: A summary of IC50 values derived from β-hematin inhibitory activity (BHIA). Footnotes for table: ^[a,b^] Values are mean and 95% confidence interval of one experiment, each concentration in triplicate. ^[a] Using heme (Fe[II]PPIX[Cl]) as a starting reagent. ^[b] Using hematin (Fe[III]PPIX[OH]) as a starting reagent. ^[c] […] CQ = chloroquine. R-BHIA = reducing β-hematin inhibitory activity. O-BHIA = oxidizing β-hematin inhibitory activity.

[4] = test system: Ring stages of NF54 strain P. falciparum; assay: Antiplasmodial activity of drug combinations (pLDH, isobologram/FIC); type: cell-based; settings: Plasmodium falciparum, NF54, ring stages NF54; mean (95% CI); tested in parallel with the combination of the same line; read-out: IC50, Drugs alone
Procedure: The activity of the drug combinations against the P. falciparum NF54 strain was determined as described above. In each experiment, drugs were tested alone and in combination. Twofold serial dilutions of the drug solutions were made using fixed molar ratios of 1:1, 1:3, and 3:1 for each combination and using two technical replicates (ranging from 200 to 1.0 nM). Parasite growth was determined by the pLDH method, as described above. IC50 values for each drug alone or in combination were determined, and an isobologram analysis was performed by plotting the fractional inhibitory concentrations (FIC) for each combination and its component drugs separately. Individual FIC values were calculated as the IC50 of the drug combination divided by the IC50 of the drug in isolation. A dashed line was plotted to indicate any additive effect and distinguish antagonism (above the dashed line) from synergism (below the dashed line). Three independent experiments were performed, each one containing two replicates. Each experiment was used to represent an isobologram analysis [mean and 95% confidence interval (CI)].
Values represent one experiment; each concentration of drug combination was tested in technical duplicate. Black dashed line indicates ΣFIC = 1 (absolute additivity). […] FIC index <1 is synergistic, ~1 is additive, and >1 is antagonistic. Nondetrimental interactions are 0.25 <ΣFIC <1.25.
^[a] Values are the mean and 95% confidence interval of one experiment for each concentration of compounds in duplicate.

[5] = test system: P. falciparum Dd2 strain; design: method as in PMID 31290221, PMID 34832911, PMID 38559731; settings: asynchronous culture, SYBR Green I; read-out: IC50 (nM, median ± SEM) for P. falciparum Dd2 strain; cited from earlier work
[6] = reductive step 10 minutes, read-out: IC50 (µM) values of R-BHIA using heme (iron II), 10 minutes
[7] = reductive step 120 minutes, read-out: IC50 (µM) values of R-BHIA using heme (iron II), 120 minutes

SMILES | IC50 [1] [nM] | Fold changes (24 h/0.16 h) [1] | IC50 [2] [nM] | Fold changes (24 h/0.16 h) [2] | IC50 [3, 6] [µM] | IC50 [3, 7] [µM] | IC50 [4] [nM] | Fold changes, IC50 (10 minutes) to IC50 (120 minutes) [3] | Fold changes, IC50 (10 minutes) to IC50 (120 minutes) ([3]; listed as LH70 (1)) | IC50 [5] [nM]
C[C@H]1[C@@H](O)O[C@@H]2O[C@@]3(C)CC[C@H]4[C@H](C)CC[C@@H]1[C@@]24OO3 [DHA, dihydroartemisinin, reference compound] | 1.9 ± 0.25 | 15.82 ± 2.21 | 3.5 ± 0.43 | 19.9 ± 0.09 | 262 | 161 |  |  |  | 
COCCOCCOCCOCCn1c(-c2ccc(-n3cc(-c4ccc(OC5OC6OC7(C)CCC8C(C)CCC(C5C)C68OO7)cc4)nn3)cc2)nc2ccccc21 (stereo not drawn) [Hybrid 1] |  | 0.98 ± 0.22 | 1.8 ± 0.08 | 0.90 ± 0.08 | 609 | 284 | 2.2 | 3 | 2.1 | 3 ± 0.3
CC1CCC2C(C)C(OC(=O)CCC(=O)OCCNc3ccnc4cc(Cl)ccc34)OC3OC4(C)CCC1C32OO4 (stereo not drawn) [Hybrid 2] | 4.3 ± 1.74 | 1.38 ± 0.15 | 3.7 ± 1.32 | 1.25 ± 0.46 |  |  | 4.7 |  |  | 2.3 ± 0.6

— paper PMC11232401, “Characterization of antimalarial activity of artemisinin-based hybrid drugs” (Antimicrobial Agents and Chemotherapy, 2024)
